Measured values published in patent US8461146B2, “Pharmaceutical composition for the treatment of premature ejaculation” (priority 2008, dated 2013).
“Also recorded” adds a separate entry of the source.

Tests used:
[1] = tested on: premature ejaculation patients; conditions: clomipramine 25 mg or 50 mg per day; sertraline 50 mg to 200 mg per day; fluoxetine 40 mg; cited from earlier work
[2] = Side effect evaluation, clinical study (nausea); format: in vivo, human; conditions: sertraline 50.0 mg, triple C 7.5 + S 11.3 + F 5.9 mg
Procedure: (§1) Patients with premature ejaculation of 60 seconds or less were divided into 4 groups of twenty people. […] A dose was taken 3 hours before the sexual intercourse begins, and the administration period was for 3 weeks. The effect of the administration of the drugs to the patients examined through interviews with the patients.
A side effect incidence rate of nausea was investigated among patients who took each drug in Example 4.

[3] = rat, in vivo, po
Procedure: Rats were supplemented with about 200 μl of heparinized saline (20 IU/ml) at each sampling times.
The maximum plasma concentration (Cmax) and the time to reach Cmax (Tmax) were obtained from the plasma concentration-time curve. The area under the plasma concentration-time curve (AUC) was calculated by using the trapezoidal rule.

[4] = tested on: Patients with premature ejaculation of 60 seconds or less; experiment: Clinical study: treatment effect in patients with premature ejaculation; format: in vivo, human; conditions: sertraline 50.0 mg, fluoxetine 20.0 mg, triple C 7.5 + S 11.3 + F 5.9 mg, 3 weeks; for Patient no. with ELT of 10 min or over: of 20 patients per group, daily dose clomipramine 22.4 mg, 3 hours before intercourse; for Treatment effect: share of 20 patients with ELT 10 min or more, clomipramine 22.4 mg
Procedure: as §1, with “patients. A drug was determined as effective when the patient's ejaculation latency time had been 10 minutes or more.” for “patients.”

[5] = clomipramine 50 mg; sertraline 50 mg to 200 mg per day; fluoxetine 40 mg and another report; cited from earlier work
[6] = Side effect evaluation, clinical study (sedation); format: in vivo, human; conditions: clomipramine 22.4 mg, triple C 7.5 + S 11.3 + F 5.9 mg
Procedure: as §1
A side effect incidence rate of sedation was investigated among patients who took each drug in Example 4.

[7] = tested on: sexually active male Crl:CD (SD) rats; experiment: Pharmacological effect evaluation (rats): copulatory behavior test, ejaculation latency time; format: in vivo; conditions: single drugs and double-drug combinations, C 2.70, S 6.02, F 2.41 mg/kg; for Ejaculation latency time, mean ± S.E.M.: single oral, test 3 h after dosing; for Increasing rate of ELT: vs negative control
Procedure: According to the method of Brain Res Brain Res Protoc, 1997, (1):203-9, this experiment was executed by employing male and female Crl:CD (SD) rats above 20 weeks old as test animals.
The female rats were anesthetized by the intraperitoneal injection of combination of ketamine 75 mg/kg and xylazine 25 mg/kg. After performing laparotomy, the ovaries were removed and peritoneal wall was closed with sutures. 2 ml of 10% ampicillin was injected intraperitoneally and the female rats had recovery period of 7 days. Ovariectomied females were brought into artificial estrus by subcutaneous injection of 20 μg/rat of estradiol benzoate, dissolved in 0.2 ml of sesame oil, about 52 hours before the administration of a test compound, followed by s.c injection of 1 mg/rat of progestrerone, dissolved in 0.2 ml of sesame oil, about 4 hours before the administration of a test compound.
Screening test was performed in an observation cage (60×40×30 cm) with plexiglass front. Before screening test, the male rats were allowed to adapt to the observation cage for 10 minutes and then the female rats with artificial estrus were brought into the cage. If male rats had ejaculated within 30 minutes, they were regarded as sexually active ones. Selected male rats went through copulatory experience for 5 times at 3 days intervals.
The experienced males were divided into 15 groups of about 10 animals so that the mean ejaculation latency time (ELT) of groups are similar. Test compound was single orally administered.
Group 1 as a negative control was administered with 0.5% methylcellulose 1500 (Sigma Co., hereinafter as “MC 1500”). […] Groups 5˜7 were administered with double-drug combinations. Groups 8˜15 were administered with triple-drug combinations having various doses. Detailed doses are represented in Table 2 below.
After 2 hours and 50 minutes from the administration of test compounds, the male rats were allowed to adapt to the observation cage for 10 minutes. Then copulatory behavior test was initiated with the introduction of female rats with artificial estrus into the observation cage. The ejaculation latency time (ELT) as the time from the first intromission until the ejaculation was evaluated.

Cmax and AUC after triple-drug combination compared with single drug administration (in words) [3] | SMILES | Ejaculation delay effect (literature) [1] | Incidence rate of nausea ([2]; 20 patients) [%] | No. of nausea ([2]; of 20 patients) | Patient no. with ELT of 10 min or over [4] | Treatment effect [4] | Treatment effect ([4]; listed as sertraline) | Side effects (literature) [5] | Incidence rate of sedation ([6]; 20 patients) [%] | No. of sedation ([6]; of 20 patients) | Ejaculation latency time, mean ± S.E.M. [7] [s] | Increasing rate of ELT [7] [%]
only AUC increased significantly | CN[C@H]1CC[C@@H](c2ccc(Cl)c(Cl)c2)c2ccccc21 [Sertraline, sertraline] | the ejaculation was delayed | 90 | 18 | 8 | 40% | about 40% | nausea, vomiting | – | – | – | –
– | CN(C)CCCN1c2ccccc2CCc2ccc(Cl)cc21 [Clomipramine, clomipramine] | ejaculation latency effect; also recorded: ejaculation was delayed | – | – | 15 | 75% | – | constipation, dry-mouth, nausea, drowsiness, headache and dizziness | 70 | 14 | 177.2 ± 47.6 | −14.3
increases in Cmax and AUC | CNCCC(Oc1ccc(C(F)(F)F)cc1)c1ccccc1 (centres unmarked) [Fluoxetine, fluoxetine] | the ejaculation delay effect was weak | – | – | 0 | the curative effect did not show up | – | drowsiness, dry-mouth, nausea, vomiting; also recorded: nausea, headache, and insomnia | – | – | 141.3 ± 51.2 | −31.7
